In publication PMC12066687 (Frontiers in Immunology, 2025):
Read-outs that look alike come from different tables or passages of the source.

What was measured:
VSV-EBOV-GP = test: microbe, parasite or virus in culture; assay type: cell-based, Ebola virus (EBOV/H.sap-tc/COD/76/Yambuku-Mayinga); settings: for inhibition at 0.2 µM: read-out: Inhibition% (200nM)
Vero cells = settings: for cytotoxicity: African green monkey
EBOV-GP = EBOV-GP (Zaire ebolavirus, UniProt Q05320); test: biochemical; assay type: binding, Zaire EBOV (strain Mayinga-76)
EBOV-GP, sequence (Q05320 33-650 limits assumed): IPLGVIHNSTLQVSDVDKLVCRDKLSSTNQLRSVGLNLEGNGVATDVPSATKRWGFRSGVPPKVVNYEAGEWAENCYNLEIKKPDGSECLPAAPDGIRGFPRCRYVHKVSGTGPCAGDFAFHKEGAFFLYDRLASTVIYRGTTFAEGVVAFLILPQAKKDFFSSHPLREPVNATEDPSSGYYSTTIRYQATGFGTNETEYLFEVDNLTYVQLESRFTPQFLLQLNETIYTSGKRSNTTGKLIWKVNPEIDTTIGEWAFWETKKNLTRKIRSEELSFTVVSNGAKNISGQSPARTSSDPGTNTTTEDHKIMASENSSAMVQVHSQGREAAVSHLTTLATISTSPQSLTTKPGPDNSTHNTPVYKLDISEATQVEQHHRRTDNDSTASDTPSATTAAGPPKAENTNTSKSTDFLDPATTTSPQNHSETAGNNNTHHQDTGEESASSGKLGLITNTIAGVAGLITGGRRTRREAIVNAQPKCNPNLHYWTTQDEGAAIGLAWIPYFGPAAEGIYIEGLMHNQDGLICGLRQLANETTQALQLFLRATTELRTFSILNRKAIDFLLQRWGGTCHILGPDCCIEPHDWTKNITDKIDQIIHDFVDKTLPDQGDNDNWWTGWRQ

in vitro = settings: African green monkey
VSV-G = assay type: cell-based, vesicular stomatitis virus
VSV-LASV-GP = assay type: cell-based, Lassa virus (LASV) (Josiah)

Row | Compound | EC50 (VSV-EBOV-GP; Zaire ebolavirus, Vero) [nM] | SI (Selectivity index = CC50/EC50) (Vero cells) | CC50 (in vitro) [nM] | other results
1 | CC/C(=C(\c1ccccc1)c1ccc(OCCN(C)C)cc1)c1cccc(N=S(=O)(F)F)c1 [Compound 1] |  |  |  | EC50 (VSV-EBOV-GP; Zaire ebolavirus, Vero, 16 h): 380 nM; cytotoxicity (Vero cells): did not exhibit cytotoxicity up to 10 µM
2 | CC/C(=C(\c1ccccc1)c1ccc(OCCN(C)C)cc1)c1cccc(NS(=O)(=O)NC2CCCOC2)c1 (centres unmarked) [Compound 2] |  |  |  | EC50 (VSV-EBOV-GP; Zaire ebolavirus, Vero, 16 h): 470 nM
3 | CC/C(=C(\c1ccccc1)c1ccc(OCCN(C)C)cc1)c1cccc(NS(=O)(=O)NCc2ncon2)c1 [Compound 3] |  |  |  | EC50 (VSV-EBOV-GP; Zaire ebolavirus, Vero, 16 h): 550 nM
4 | CC/C(=C(\c1ccccc1)c1ccc(OCCN(C)C)cc1)c1cccc(NS(=O)(=O)N[C@@H]2CCOC2)c1 [Compound 4R] | 351 | 43 | 15000 | Kd (EBOV-GP): 6400 nM; cytotoxicity (Vero cells): did not show significant cytotoxicity below 10 µM
5 | CC/C(=C(\c1ccccc1)c1ccc(OCCN(C)C)cc1)c1cccc(NS(=O)(=O)N[C@H]2CCOC2)c1 [Compound 4S] | 92 | 150 | 14000 | Kd (EBOV-GP): 630 nM; affinity enhancement vs tamoxifen (EBOV-GP): 50 fold; inhibition of VLPs displaying VSV-G (VSV-G): selective inhibition of VSV-EBOV-GP but not VSV-G or VSV-LASV-GP; inhibition of VSV-LASV-GP (VSV-LASV-GP): selective inhibition of VSV-EBOV-GP but not VSV-G or VSV-LASV-GP; cytotoxicity (Vero cells): did not show significant cytotoxicity below 10 µM
6 | CC/C(=C(\c1ccccc1)c1ccc(OCCN(C)C)cc1)c1cccc(NS(=O)(=O)NC2CCOC2)c1 (centres unmarked) [Compound 4] | 241 |  |  | EC50 (VSV-EBOV-GP): 240 nM
7 | CC/C(=C(\c1ccccc1)c1ccc(OCCN(C)C)cc1)c1cccc(NS(=O)(=O)NC2COC2)c1 [Compound 5] | 156 | 44 | 6800 | 
8 | CC/C(=C(\c1ccccc1)c1ccc(OCCN(C)C)cc1)c1cccc(NS(=O)(=O)NC2COCC2C)c1 (centres unmarked) [Compound 6] | 201 | 70 | 14000 | 
9 | CC/C(=C(\c1ccccc1)c1ccc(OCCN(C)C)cc1)c1cccc(NS(=O)(=O)NC2(C)CCOC2)c1 (centres unmarked) [Compound 7] | 268 | 31 | 8400 | 
10 | CC/C(=C(\c1ccccc1)c1ccc(OCCN(C)C)cc1)c1cccc(NS(=O)(=O)NC2CCN(C)C2)c1 (centres unmarked) [Compound 8] | 145 | 14 | 2000 | 
11 | CC/C(=C(\c1ccccc1)c1ccc(OCCN(C)C)cc1)c1cccc(NS(=O)(=O)NC2CCN(C(C)C)C2)c1 (centres unmarked) [Compound 9] | 790 | 4.3 | 3400 | 
12 | CC/C(=C(\c1ccccc1)c1ccc(OCCN(C)C)cc1)c1cccc(NS(=O)(=O)N[C@H]2CCN(C)C2)c1 [Compound 10] | 664 | 4.5 | 3000 | 
13 | CC/C(=C(\c1ccccc1)c1ccc(OCCN(C)C)cc1)c1cccc(NS(=O)(=O)N[C@@H]2CCN(C)C2)c1 [Compound 11] | 575 | 6.3 | 3600 | 
14 | CC/C(=C(\c1ccccc1)c1ccc(OCCN(C)C)cc1)c1cccc(NS(=O)(=O)NC2CCN(CC)C2)c1 (centres unmarked) [Compound 12] | 841 | 4.8 | 4000 | 
15 | CC/C(=C(\c1ccccc1)c1ccc(OCCN(C)C)cc1)c1cccc(NS(=O)(=O)N[C@H]2CCN(C(CC)CC)C2)c1 [Compound 13] | 813 | 6.5 | 5300 | 
16 | CCCN1CCC(NS(=O)(=O)Nc2cccc(/C(CC)=C(/c3ccccc3)c3ccc(OCCN(C)C)cc3)c2)C1 (centres unmarked) [Compound 14] | 618 | 5.0 | 3100 | 
17 | CC/C(=C(\c1ccccc1)c1ccc(OCCN(C)C)cc1)c1cccc(NS(=O)(=O)NC2CCN(CCCO)C2)c1 (centres unmarked) [Compound 15] | 1720 | 4.5 | 7700 | 
18 | CC/C(=C(\c1ccccc1)c1ccc(OCCN(C)C)cc1)c1ccc(NS(=O)(=O)NCc2ccn[nH]2)cc1 [Compound B02, CC/C(=C(\c1ccccc1)c1ccc(OCCN(C)C)cc1)c1ccc(NS(=O)(=O)NCc2ccn[nH]2)cc1] |  |  |  | inhibition at 0.2 µM (VSV-EBOV-GP; Zaire ebolavirus, Vero): 4.27%
19 | CC/C(=C(\c1ccccc1)c1ccc(OCCN(C)C)cc1)c1ccc(N=S(=O)(F)N(C)Cc2ccn[nH]2)cc1 (centres unmarked) [Compound C02, CC/C(=C(\c1ccccc1)c1ccc(OCCN(C)C)cc1)c1ccc(N=S(=O)(F)N(C)Cc2ccn[nH]2)cc1] |  |  |  | inhibition at 0.2 µM (VSV-EBOV-GP; Zaire ebolavirus, Vero): 2.05%
20 | CC/C(=C(\c1ccccc1)c1ccc(OCCN(C)C)cc1)c1ccc(NS(=O)(=O)NCc2n[nH]c(=O)[nH]2)cc1 [Compound D02, CC/C(=C(\c1ccccc1)c1ccc(OCCN(C)C)cc1)c1ccc(NS(=O)(=O)NCc2n[nH]c(=O)[nH]2)cc1] |  |  |  | inhibition at 0.2 µM (VSV-EBOV-GP; Zaire ebolavirus, Vero): -0.485%
21 | CC/C(=C(\c1ccccc1)c1ccc(OCCN(C)C)cc1)c1ccc(N=S(=O)(F)N(C)Cc2n[nH]c(=O)[nH]2)cc1 (centres unmarked) [Compound E02, CC/C(=C(\c1ccccc1)c1ccc(OCCN(C)C)cc1)c1ccc(N=S(=O)(F)N(C)Cc2n[nH]c(=O)[nH]2)cc1] |  |  |  | inhibition at 0.2 µM (VSV-EBOV-GP; Zaire ebolavirus, Vero): 11%
22 | CC/C(=C(\c1ccccc1)c1ccc(OCCN(C)C)cc1)c1ccc(NS(=O)(=O)NC(C)c2n[nH]c(=O)[nH]2)cc1 (centres unmarked) [Compound F02, CC/C(=C(\c1ccccc1)c1ccc(OCCN(C)C)cc1)c1ccc(NS(=O)(=O)NC(C)c2n[nH]c(=O)[nH]2)cc1] |  |  |  | inhibition at 0.2 µM (VSV-EBOV-GP; Zaire ebolavirus, Vero): 14.1%
23 | CC/C(=C(\c1ccccc1)c1ccc(OCCN(C)C)cc1)c1ccccc1 [Tamoxifen, tamoxifen, reference compound] |  |  |  | inhibition of VLPs displaying VSV-G (VSV-G): selective inhibition of VSV-EBOV-GP but not VSV-G or VSV-LASV-GP; inhibition of VSV-LASV-GP (VSV-LASV-GP): selective inhibition of VSV-EBOV-GP but not VSV-G or VSV-LASV-GP
